Test results reported in patent US12458624B2, “Deuterium-enriched substituted phenoxyphenyl acetic acids and acylsulfonamides” (priority 2019, dated 2025).

Experiments:
[1] = test system: male mongrel dogs; test: Endothelin-1-induced changes in diastolic and urethral pressures in the anesthetized male dog; type: in vivo
Protocol: Methodology for Determining Whether an ET-1 Receptor Selective Antagonist could Inhibit the ET-1 Mediated Prostatic Urethral Contractions in a Mongrel Dog Model:
On separate days, two fasted male mongrel dogs (from commercial suppliers) weighing 11.0 and 12.4 kilograms (kg), are anesthetized with sodium pentobarbital at 35 mg/kg (i.v.) to effect, followed by 4 mg/kg/hr (i.v.) infusion. A cuffed endotracheal tube is inserted and each animal is ventilated with room air using a positive displacement large animal ventilator at a rate of 18 breaths/minute and an average tidal volume of 18 mL/kg body weight. Body temperature is maintained with a heating pad and heat lamp using a temperature controller and esophageal probe. Two catheters are placed in the aorta via the femoral arteries (one in each artery) for administration of endothelin or phenylephrine and for continuous direct monitoring of blood pressure and heart rate using a Statham blood pressure transducer (Spectramed) and a computer system (Modukar Instruments, Inc.). Two other catheters are placed in the vena cava via the femoral veins (one catheters in each vein) for administration of pentobarbital and N-(4-isopropyl (d7)-benzenesulfonyl)-α-(4-carboxy-2-n-propylphenoxy)-3,4-methylenedioxyphenylacetamide dipotassium salt.
A supra-pubic incision approximately one-half inch lateral to the penis is made to expose the ureters, urinary bladder, prostate, and urethra. The dome of the bladder is retracted to facilitate dissection of the ureters. The ureters are cannulated with PE 90 and tied off to the bladder. Umbilical tape is passed beneath the urethra at the bladder neck and another piece of tape is placed approximately 1-2 cm distal to the prostate. The bladder is incised and a Micro-tip catheter transducer is advanced into the urethra. The neck of the bladder is ligated with the umbilical tape to hold the transducer. The bladder incision is sutured with 3-0 silk (purse string suture). The transducer is withdrawn until it is positioned in the prostatic urethra. The position of the Micro-tip catheter is verified by gently squeezing the prostate and noting the large change in urethral pressure prior to ligating the distal urethra.
Phenylephrine (10 μg/kg, intra-arterial) is administered and pressor effects on diastolic blood pressure (DBP) and intra-urethral pressure (IUP) is noted. When blood pressure returned to baseline, endothelin-1 (1 nmole/kg, intra-arterial) is administered. Changes in DBP and IUP are monitored for one hour and an ET-1 selective endothelin antagonist, such as the deuterated compound, N-(4-isopropyl(d7)benzenesulfonyl)-α-(4-carboxy-2-n-propylphenoxy)-3,4-methylenedioxyphenyl-acetamide dipotassium salt (30 mg/kg, intra-venous), is administered. […] Phenylephrine is administered at the end of experiment to verify specificity for ET-1 blockade. The dogs are euthanized with an overdose of pentobarbital followed by saturated KCl.
The drugs utilized in the experiment described above are: • (1) Phenylephrine, HCl (PE) (Sigma Chemical Co.) is given at a volume of 0.05 mL/kg; • (2) Endothelin-1 (ET-1) (Human, Porcine, Canine, rat, Mouse, Bovine) is given at a volume of 0.05 mL/kg; • (3) ET-1 selective antagonist, such as the deuterated compound N-(4-isopropyl(d7)benzenesulfonyl)-α-(4-carboxy-2-n-propyl-[…]phenoxy)-3,4-methylenedioxyphenyl-acetamide dipotassium salt, is given at a volume of 0.3 mL/kg. • All drugs are dissolved in isotonic saline solution.

[2] = test system: canine model of renovascular hypertension; details: J. Hypertens. 1998, 16, 835-841; cited from earlier work
[3] = test system: rat prostate; test: In situ rat prostate, ET-1 induced contraction; type: in vivo, Sprague-Dawley rats; details: ET-1 0.3 nmoles/kg intra-arterial; antagonist IA five minutes before third ET-1 injection
Protocol: Male Sprague-Dawley rats weighing 300-400 grams are anesthetized with urethane (1.75 g/kg, ip), a tracheal cannula is inserted, and the femoral artery is cannulated. Core body temperature is maintained at 37° C. A 4-5 cm midline abdominal incision is made to expose the bladder and prostate. The prostate is separated from the bladder and surrounding capsule by blunt dissection with a forcep. A length of surgical silk is gently secured around the anterior tips of the prostate lobes. A second length of surgical silk attached to an atraumatic needle is passed through and tied to the base of the prostate approximately 10-12 mm posterior to the first tie. The posterior ligature is secured to an anchor post whereas the anterior ligature is connected to a Grass FT03 transducer and maintained at a tension of 1 g. Signals from the transducer are amplified and recorded on a polygraph (Hewlett-Packard 8805B amplifiers and 7758 recorder, Palo Alto, CA). After equilibrating for over 15 min, the rats are administered pretreatment drugs (atropine 1 mg/kg, (+) propranolol 1 mg/kg) 10 min apart through the intra-arterial (IA) cannula. […] The response of the prostate to ET-1 is quantified by measuring the change from baseline tension to the peak of the response during the five-minute period after the third ET-1 injection. […]

[4] = ET-1 1 nmole/kg intra-arterial, before antagonist, average
[5] = 30 mg/kg i.v., ET-1 1 nmole/kg intra-arterial challenge ten to 15 minutes after administration
[6] = PE 10 μg/kg intra-arterial after antagonist 30 mg/kg i.v., one dog

## CC[C@H](C)[C@H](NC(=O)[C@H](CC(=O)O)NC(=O)[C@H](CC(C)C)NC(=O)[C@H](Cc1c[nH]cn1)NC(=O)[C@@H]1CSSC[C@H](N)C(=O)N[C@@H](CO)C(=O)N[C@H]2CSSC[C@H](NC(=O)[C@H](CCC(=O)O)NC(=O)[C@H](CCCCN)NC(=O)[C@H](CC(=O)O)NC(=O)[C@H](CCSC)NC(=O)[C@H](CC(C)C)NC(=O)[C@H](CO)NC(=O)[C@H](CO)NC2=O)C(=O)N[C@@H](C(C)C)C(=O)N[C@@H](Cc2ccc(O)cc2)C(=O)N[C@@H](Cc2ccccc2)C(=O)N1)C(=O)N[C@H](C(=O)N[C@@H](Cc1c[nH]c2ccccc12)C(=O)O)[C@@H](C)CC [ET-1, reference compound]
[1]; [4]
  increase in IUP: 15 mmHg
  peak pressor effect on DBP: 25 mmHg
[1]; ET-1 1 nmole/kg intra-arterial, before antagonist, average of both dogs
  decrease in DBP (initial depressor effect): 15 mmHg

## CCCCc1nc(Cl)c(CO)n1Cc1ccc(-c2ccccc2-c2nn[nH]n2)cc1 [Losartan]
[2]
  reduction in mean arterial blood pressure: 20 mmHg

## [2H]C([2H])([2H])C([2H])(c1ccc(S(=O)(=O)NC(=O)C(Oc2ccc(C(=O)[O-])cc2CCC)c2ccc3c(c2)OCO3)cc1)C([2H])([2H])[2H].[2H]C([2H])([2H])C([2H])(c1ccc(S(=O)(=O)NC(=O)C(Oc2ccc(C(=O)[O-])cc2CCC)c2ccc3c(c2)OCO3)cc1)C([2H])([2H])[2H].[K+].[K+] (stereo not drawn) [N-(4-isopropyl(d7)benzenesulfonyl)-α-(4-carboxy-2-n-propylphenoxy)-3,4-methylenedioxyphenylacetamide Dipotassium Salt]
[1]; [5]
  inhibition of ET-1 depressor effect on DBP: 70%
  inhibition of ET-1 pressor effect on DBP: 75%
  inhibition of ET-1 pressor effect on IUP: 94%
[1]; [6]
  inhibition of phenylephrine-induced increase in DBP: 33%
  inhibition of phenylephrine-induced increase in IUP: 11%
[1]; anesthetized dogs
  hemodynamic and prostatic urethral responses to ET-1: specifically inhibited
[1]; one dog, specificity check
  change of intra-arterial phenylephrine-induced increases in DBP and IUP after administration: did not change significantly
[3]
  effect on ET-1 contraction of the prostate: specific inhibition
